Measurements reported in patent publication US8592174B2, “Peptidase substrates” (bioMérieux, S.A., priority 2009, dated 2013).
Blank lines part the entries; values can stand above or below the compound they belong to.

Columns and labels:
Assay type in all cases: cell-based
Conditions in all cases: 75 mg/l, 48 h 37° C.
[1] = system: Bacillus subtilis 0204038; assay: Peptidase detection on Columbia medium (Example 5)
Description: (§1) After homogenization, the media were distributed into Petri dishes 55 mm in diameter. A medium acting as a growth control (Columbia) and denoted C was also poured.
(§2) Twenty-two strains of microorganisms were inoculated with a 10 μl calibrated loop according to the three-quadrant streaking method using bacterial suspensions at 0.5 McFarland.

[2] = system: Providencia rettgeri 0706064; assay: Peptidase detection on Columbia medium (Example 5); note: key: +++: good growth/high coloration strength; ++: medium growth/medium coloration strength; +: weak growth/weak coloration strength; −: no growth/no coloration
Description: as §1, §2

[3] = system: Streptococcus pyogenes 9806380; assay: Peptidase detection on Columbia medium (Example 5); note: key: +++: good growth/high coloration strength; ++: medium growth/medium coloration strength; +: weak growth/weak coloration strength; −: no growth/no coloration
Description: as §1, §2

[4] = system: Candida albicans 0801025; assay: Peptidase detection on Columbia medium (Example 5); note: key: +++: good growth/high coloration strength; ++: medium growth/medium coloration strength; +: weak growth/weak coloration strength; −: no growth/no coloration
Description: as §1, §2

[5] = system: Enterobacter cloacae 0604040; assay: Peptidase detection on Columbia medium (Example 5); note: key: +++: good growth/high coloration strength; ++: medium growth/medium coloration strength; +: weak growth/weak coloration strength; −: no growth/no coloration
Description: as §1, §2

[6] = system: MRSA 0303033; assay: Peptidase detection on Columbia medium (Example 5)
Description: as §1, §2

[7] = system: Candida glabrata 0408083; assay: Peptidase detection on Columbia medium (Example 5)
Description: as §1, §2

[8] = system: Staphylococcus epidermidis 0203050; assay: Peptidase detection on Columbia medium (Example 5)
Description: as §1, §2

[9] = system: Pseudomonas aeruginosa 0001001; assay: Peptidase detection on Columbia medium (Example 5)
Description: as §1, §2

[10] = system: Enterococcus faecium 0610021; assay: Peptidase detection on Columbia medium (Example 5)
Description: as §1, §2

[11] = system: Acinetobacter baumannii 0604029; assay: Peptidase detection on Columbia medium (Example 5)
Description: as §1, §2

[12] = system: Klebsiella pneumoniae 0008009; assay: Peptidase detection on Columbia medium (Example 5)
Description: as §1, §2

[13] = system: Burkholderia cepacia 7507032; assay: Peptidase detection on Columbia medium (Example 5)
Description: as §1, §2

[14] = system: Serratia marcescens 7303004; assay: Peptidase detection on Columbia medium (Example 5)
Description: as §1, §2

[15] = system: Escherichia coli 0002005; assay: Peptidase detection on Columbia medium (Example 5)
Description: as §1, §2

[16] = system: Citrobacter freundii 0006197; assay: Peptidase detection on Columbia medium (Example 5)
Description: as §1, §2

[17] = system: Morganella morganii 9207053; assay: Peptidase detection on Columbia medium (Example 5)
Description: as §1, §2

[18] = system: Enterococcus faecalis 0008192; assay: Peptidase detection on Columbia medium (Example 5)
Description: as §1, §2

[19] = system: Yersinia enterocolitica 7605019; assay: Peptidase detection on Columbia medium (Example 5)
Description: as §1, §2

[20] = system: Salmonella ser. Typhimurium 0801029; assay: Peptidase detection on Columbia medium (Example 5)
Description: as §1, §2

[21] = system: Listeria monocytogenes 8812049; assay: Peptidase detection on Columbia medium (Example 5)
Description: as §1, §2

[22] = system: Staphylococcus aureus 7811049; assay: Peptidase detection on Columbia medium (Example 5)
Description: as §1, §2

[23] = system: Bacillus subtilis 0204038; assay: Peptidase detection on Columbia medium (Example 3)
Excerpt: (§3) A medium serving as a growth control (Columbia) and denoted C was also poured.

[24] = system: Providencia rettgeri 0706064; assay: Peptidase detection on Columbia medium (Example 3)
Excerpt: as §3

[25] = system: Streptococcus pyogenes 9806380; assay: Peptidase detection on Columbia medium (Example 3)
Excerpt: as §3

[26] = system: Candida albicans 0801025; assay: Peptidase detection on Columbia medium (Example 3)
Excerpt: as §3

[27] = system: Enterobacter cloacae 0604040; assay: Peptidase detection on Columbia medium (Example 3)
Excerpt: as §3

[28] = system: MRSA 0303033; assay: Peptidase detection on Columbia medium (Example 3)
Excerpt: as §3

[29] = system: Candida glabrata 0408083; assay: Peptidase detection on Columbia medium (Example 3)
Excerpt: as §3

[30] = system: Staphylococcus epidermidis 0203050; assay: Peptidase detection on Columbia medium (Example 3)
Excerpt: as §3

[31] = system: Enterococcus faecium 0610021; assay: Peptidase detection on Columbia medium (Example 3)
Excerpt: as §3

[32] = system: Acinetobacter baumannii 0604029; assay: Peptidase detection on Columbia medium (Example 3)
Excerpt: as §3

[33] = system: Klebsiella pneumoniae 0008009; assay: Peptidase detection on Columbia medium (Example 3)
Excerpt: as §3

[34] = system: Burkholderia cepacia 7507032; assay: Peptidase detection on Columbia medium (Example 3)
Excerpt: as §3

[35] = system: Escherichia coli 0002005; assay: Peptidase detection on Columbia medium (Example 3)
Excerpt: as §3

[36] = system: Citrobacter freundii 0006197; assay: Peptidase detection on Columbia medium (Example 3)
Excerpt: as §3

[37] = system: Morganella morganii 9207053; assay: Peptidase detection on Columbia medium (Example 3)
Excerpt: as §3

[38] = system: Enterococcus faecalis 0008192; assay: Peptidase detection on Columbia medium (Example 3)
Excerpt: as §3

[39] = system: Yersinia enterocolitica 7605019; assay: Peptidase detection on Columbia medium (Example 3)
Excerpt: as §3

[40] = system: Salmonella ser. Typhimurium 0801029; assay: Peptidase detection on Columbia medium (Example 3)
Excerpt: as §3

[41] = system: Listeria monocytogenes 8812049; assay: Peptidase detection on Columbia medium (Example 3)
Excerpt: as §3

[42] = system: Staphylococcus aureus 7811049; assay: Peptidase detection on Columbia medium (Example 3)
Excerpt: as §3

[43] = system: Pseudomonas aeruginosa 0001001; assay: Peptidase detection on Columbia medium (Example 3); design: Coloration strength: key: +++: good growth/high coloration strength; ++: medium growth/medium coloration strength; +: weak growth/weak coloration strength; −: no growth/no coloration
Excerpt: as §3

[44] = system: Serratia marcescens 7303004; assay: Peptidase detection on Columbia medium (Example 3); design: Coloration strength: key: +++: good growth/high coloration strength; ++: medium growth/medium coloration strength; +: weak growth/weak coloration strength; −: no growth/no coloration
Excerpt: as §3

- Color [1]: orange
- Coloration strength [1]: +
- Growth ([1]; control C: ++): ++
- Coloration strength [3]: −
- Growth ([3]; control C: +): +
- Coloration strength [5]: −
- Growth ([5]; control C: ++): ++
- Color [6]: orange
- Coloration strength [6]: +
- Growth ([6]; control C: ++): ++
- Coloration strength [9]: −
- Growth ([9]; control C: ++): ++
- Color [10]: orange
- Coloration strength [10]: +
- Growth ([10]; control C: +): +
- Coloration strength [11]: −
- Growth ([11]; control C: ++): ++
- Coloration strength [12]: −
- Growth ([12]; control C: ++): ++
- Coloration strength [13]: −
- Growth ([13]; control C: ++): ++
- Color [14]: orange
- Coloration strength [14]: +
- Growth ([14]; control C: ++): ++
- Coloration strength [16]: −
- Growth ([16]; control C: ++): ++
- Coloration strength [17]: −
- Growth ([17]; control C: ++): ++
- Color [18]: orange
- Coloration strength [18]: +
- Growth ([18]; control C: +): +
- Coloration strength [20]: −
- Growth ([20]; control C: ++): ++
- Color [21]: orange
- Coloration strength [21]: +
- Growth ([21]; control C: +): +
Compound: C[C@H](N)C(=O)Nc1ccc(C=Cc2ccc3ccccc3[n+]2C)cc1.Cl.[Cl-] [L-alanyl-2-(4′-amidostyryl)-N-methylquinolinium (dichloride)]
- Coloration strength [2]: −
- Growth ([2]; control C: ++): ++
- Coloration strength [4]: −
- Growth ([4]; control C: ++): ++
- Coloration strength [7]: −
- Growth ([7]; control C: +): +
- Color [8]: orange
- Coloration strength [8]: +
- Growth ([8]; control C: ++): ++
- Coloration strength [15]: −
- Growth ([15]; control C: ++): ++
- Coloration strength [19]: −
- Growth ([19]; control C: +): +
- Coloration strength [22]: −
- Growth ([22]; control C: ++): ++

- Coloration strength [23]: −
- Growth ([23]; control C: +++): −
- Coloration strength [25]: −
- Growth ([25]; control C: −): −
- Coloration strength [27]: −
- Growth ([27]; control C: +++): +++
- Coloration strength [28]: −
- Growth ([28]; control C: +++): ++
- Coloration strength [31]: −
- Growth ([31]; control C: ++): ++
- Coloration strength [32]: −
- Growth ([32]; control C: +++): +++
- Coloration strength [33]: −
- Growth ([33]; control C: +++): +++
- Coloration strength [34]: −
- Growth ([34]; control C: ++): ++
- Coloration strength [36]: −
- Growth ([36]; control C: +++): +++
- Coloration strength [37]: −
- Growth ([37]; control C: +++): +++
- Coloration strength [38]: −
- Growth ([38]; control C: ++): ++
- Coloration strength [40]: −
- Growth ([40]; control C: +++): +++
- Coloration strength [41]: −
- Growth ([41]; control C: ++): ++
- Color [43]: Orangey-red
- Coloration strength [43]: +++
- Growth ([43]; control C: +++): +++
- Coloration strength [44]: ++
- Growth ([44]; control C: +++): +++
Compound: Cc1cc(C=Cc2ccc(NC(=O)[C@@H]3CCC(=O)N3)cc2)c2ccccc2[n+]1C.[I-] [pyroglutamyl-4-(4′-amidostyryl)-N-methylquinaldinium iodide]
- Coloration strength [24]: −
- Growth ([24]; control C: +++): +++
- Coloration strength [26]: −
- Growth ([26]; control C: ++): +
- Coloration strength [29]: −
- Growth ([29]; control C: +): −
- Coloration strength [30]: −
- Growth ([30]; control C: ++): −
- Coloration strength [35]: −
- Growth ([35]; control C: +++): +++
- Coloration strength [39]: −
- Growth ([39]; control C: ++): +
- Coloration strength [42]: −
- Growth ([42]; control C: ++): ++
